Key:
[1] = test system: Cancer stem cells (CSCs) isolated from murine Ptch+/− MB; experiment: Gli1 mRNA in MB cancer stem cells (neurospheres); format: cell-based; conditions: 48 h, quantitative RT-PCR
Procedure: FIG. 13. […] Gli1 mRNA levels were determined by quantitative RT-PCR using HPRT as normalizer.
Hh activity preferentially associates to stemness features. For this reason, the Hh pathway antagonist Glabrescione B has also been investigated for its ability to modulate the behavior of MB cancer stem cells (CSCs).
It has been described that Hh activity preferentially associates to stemness features. In order to determine whether Glabrescione B also modulates the behavior of MB cancer stem cells (CSCs), neurospheres isolated from murine Ptch^+/− MB were treated with Glabrescione B for 48 h and the levels of Gli1 were determined by quantitative RT-PCR. Murine MBs were isolated from Ptch1^+/− mice (Goodrich, Milenkivic et al. 1997). Tissues were collected in HBSS supplemented with 0.5% glucose and penicillin-streptomycin, grossly triturated with serological pipette and treated with DNAse I to a final concentration of 0.04% for 20 min. Finally, cells aggregates were mechanically dissociated using pipettes of decreasing bore size to obtain a single cell suspension. […]

[2] = test system: cerebellar granule progenitor cells (GCPs); experiment: BrdU incorporation in Shh-treated cerebellar granule cell progenitors; format: cell-based, mouse; conditions: Shh 3 μg/ml, 48 h
Procedure: FIG. 10. Cerebellar granule progenitor cells (GCPs) were treated with Shh (Recombinant mouse Sonic Hedgehog, amino-terminal peptide, 3 μg/ml) and with different concentrations of Glabrescione B, as indicated, for 48 h. Inhibition of cell proliferation was measured as percentage of BrdU incorporation in comparison to DMSO (0.5%, vehicle) treated sample.
A biological assay was performed in cerebellar neural progenitors cells obtained from 4-days-old mice, when they are actively proliferating under Sonic Hedgehog (Shh) stimulus. As expected, treatment of these cells with Shh increased the proliferation rate, as evaluated by BrdU-incorporation assay. […] To further evaluate the antiproliferative effect of Glabrescione B, human MB cell lines D283 were treated with Glabrescione B at different concentrations. […] The biomolecule was active, as shown by the growth rate inhibition (70-95%).
Another experiment to assess whether Glabrescione B also regulates Hh pathway in a physiological context was carried out in cerebellar granule cells precursors (GCPs) isolated from 4-days-old mice according to established protocols (Wechsler-Reya and Scott, 1999). Briefly, cerebella were removed aseptically, cut into small pieces, and incubated at room temperature for 15 min in digestion buffer [Dulbecco's PBS (Invitrogen, Gaithersburg, Md.) with 0.1% trypsin, 0.2% EDTA, and 100 μg/ml DNase]. […]

Gli1-GST fusion protein = experiment: NMR relaxation speed of Glabrescione B protons in presence of Gli1-GST; format: binding; conditions: 0.412 mM
Procedure: A sample of Glabrescione B 0.412 mM in DMSO-d6 was prepared and added to 20 μL of a solution of Gli1-GST (Glutathione S-transferase) fusion protein at 5 μg/μL, providing a molar ratio of Glabrescione B/Gli1-GST of 150:1. […] In experimental conditions, Glabrescione B protons experiencing the most significant perturbation of the relaxation speed, due to the presence of Gli1-GST, belong to the ring A of the isoflavone nucleus, namely aromatic protons H1, H3 and those belonging to methoxyl groups 2′ and 4′.

human MB D283 cells = experiment: Proliferation (BrdU), viability (MTS) and cell death (Trypan Blue) of MB D283 cells; format: cell-based; conditions: 48 h
Procedure: FIG. 11. (A) Human MB D283 cells were treated with different concentrations of Glabrescione B as indicated for 48 h. Inhibition of cell proliferation was measured as percentage of BrdU incorporation in comparison to DMSO (0.5%, vehicle) treated sample. (B) Human MB D283 cells were treated for 48 h with increasing concentrations of Glabrescione B as indicated. After 48 h, CellTiter 96® Aqueous One Solution Reagent was added to each well according to the manufacturer's instructions. After one hour in culture the cell viability (expressed in % viability) was determined by measuring the absorbance at 490 nm comparing treatment with DMSO (0.5%, vehicle) control.
FIG. 12. […]
A biological assay was performed in cerebellar neural progenitors cells obtained from 4-days-old mice, when they are actively proliferating under Sonic Hedgehog (Shh) stimulus. As expected, treatment of these cells with Shh increased the proliferation rate, as evaluated by BrdU-incorporation assay. […]
More important, Glabrescione B was able to promote cell death of D283 MB cells, as reported by Trypan Blue count assay (FIG. 12). […] Cell death was measured by Trypan Blue (Sigma, cat. #T8154) exclusion counting at least 200 cells, in duplicate samples. All described assays were evaluated at 48 h after treatment.

`COc1cc(OC)c2c(=O)c(-c3ccc(OCC=C(C)C)c(OCC=C(C)C)c3)coc2c1` [Glabrescione B, 3-(3′,4′-bis(3-methylbut-2-enyloxy)phenyl)-5,7-dimethoxy-4H-chromen-4-one] was tested, and the “Gli1 mRNA levels in MB CSCs” value [1] was “reduction of Gli1 mRNA levels”, the “Shh-induced proliferation (BrdU incorporation)” value [2] was “antagonized this effect” and the “Normalized relaxation speed ΔR/Rf, GlaB:Gli1-GST 1:150” value (from here on “Normalized relaxation speed ΔR/Rf”) (Gli1-GST fusion protein; proton 1) was 0.341. For the same molecule, the “Normalized relaxation speed ΔR/Rf” value (Gli1-GST fusion protein; proton 2′) was 0.267, the “Normalized relaxation speed ΔR/Rf” value (Gli1-GST fusion protein; proton 3) was 0.206 and the “Normalized relaxation speed ΔR/Rf” value (Gli1-GST fusion protein; proton 4′) was 0.482. For the same molecule, the “Normalized relaxation speed ΔR/Rf” value (Gli1-GST fusion protein; proton 8) was 0.028, the “Normalized relaxation speed ΔR/Rf” value (Gli1-GST fusion protein; proton 11) was 0.286 and the “Normalized relaxation speed ΔR/Rf” value (Gli1-GST fusion protein; proton 12) was 0. For the same molecule, the “Normalized relaxation speed ΔR/Rf” value (Gli1-GST fusion protein; proton 15) was 0.329, the “Normalized relaxation speed ΔR/Rf” value (Gli1-GST fusion protein; proton 19) was 0 and the “percentage of cell death (Trypan Blue)” value (human MB D283 cells) was “increase of the percentage of cell death, in a dose-dependent manner”. The growth rate inhibition (human MB D283 cells; dose range of 1-50 μM, MTS and BrdU incorporation) was 70-95%.

From patent US10093642B2, “Multitarget hedgehog pathway inhibitors and uses thereof” (UNIVERSITA' DEGLI STUDI DI SIENA, priority 2013, dated 2018)
